Patent US20160025717A1, “HYPOSIALYLATION DISORDERS” (THE UNITED STATES OF AMERICA, AS REPRESENTED BY THE …, priority 2013, published 2016)

Tested on: GNE myopathy patients
Assay: Plasma T/ST ratio (T-antigen to monosialylated ST-antigen) by LC-MS/MS in treated GNE myopathy patients
Assay type: in vivo, human
Method: The quantification of the T/ST ratio was carried out using the O-glycan quantification methods disclosed in Liu et al., Mol Genet Metab 106, 442-454 (2012). Briefly, O-linked glycans from human serum or plasma total glycoproteins were released by sodium hydroxide with sodium borohydrate and desalted by ion-exchange column and then permethylated before the quantity of T-antigen and monosialyl ST-antigen was measured using LC-MS/MS method. Plasma samples from 40 normal controls were used to establish the normal range for the T/ST ratio at <0.056. A cut-off of 0.06 was used to diagnose hyposialylation of O-linked protein glycosylation in human plasma or serum.
O-glycans were released from plasma glycoproteins and prepared for analysis essentially as described by Carlson (J Biol Chem 243: 616-626, 1968; Liu et al. Mol Genet Metab 2012, 106, 442-454 (2012)), with modifications as described. An internal standard (1250 pmol raffinose in 5 μL) was added to 10 μL of plasma and […] for a final volume of 100 μL. Next, 100 μL of freshly prepared 2M […] in 0.1M sodium hydroxide was added to denature the serum proteins and release the O-glycans; the mixture was incubated at 45° C. for 16 hours to ensure complete reaction. The reaction was neutralized by drop wise addition of 1.6 mL of a 0.25M acetic acid-methanol solution, and the O-glycans were extracted in methanol. Finally, the extracted glycans were desalted through ion-exchange AG 50W-X8 resin (Bio-Rad, Hercules, Calif.) following the manufacture's instruction and lyophilized overnight. The dried samples were dissolved in DMSO for permethylation.
Both N-glycans and O-glycans were permethylated as previously described with minor modification (Guillard et al. Clin Chem 57, 593-602 (2011)). Briefly, four NaOH pellets (approximately 375 mg) were crushed in 10 ml anhydrous DMSO, 0.5 μL water, 0.4 ml of this slurry and 0.1 ml CH3I were added to the dried glycans and the mixture was shaken vigorously for one hour. The mixture was extracted five times sequentially with a mixture of 200 μL water and 600 μL chloroform. […]

Row | SMILES | T/ST ratio (GNE myopathy patient NH00016, after three months without medication (after sialic acid)) | T/ST ratio (GNE myopathy patient NH00016, had received sialic acid one month before the test) | T/ST ratio (GNE myopathy patient SIA79 self-administering off-label ManNAc, cut-off 0.06)
1 | CC(=O)N[C@@H]1C(O)C[C@](O)(C(=O)O)OC1[C@H](O)[C@H](O)CO (stereo in doubt) [sialic acid, 5-N-acetylneuraminic acid] | 0.7 | 0.05 | –
2 | CC(=O)N[C@H]1[C@@H](O)[C@H](O)[C@@H](CO)O[C@H]1O [ManNAc, N-acetyl-D-mannosamine] | – | – | normal range
